This note sets out measurements from patent US10328114B2, “Lung injury repair compositions and methods” (University of Iowa Research Foundation, priority 2015, dated 2019).

One assay relates to DLEP integrin β4^+ cells. The experiment in a line: DLEP integrin β4+ cells in mouse lungs by immunofluorescence after bleomycin injury. In kind it is in vivo. An excerpt: (§1) (8) PKC-ζi promotes proliferation of distal lung epithelial progenitor cells. Recently Chapman et al reported that integrin α6β4 identifies a population of lung cells with regenerative potential in mice (Chapman et al. (2011). “Integrin alpha6beta4 identifies an adult distal lung epithelial population with regenerative potential in mice.” J Clin Invest 121(7): 2855-2862). Furthermore, Li et al, reported same population in human lungs (Li et al. (2013). “Integrin alpha6beta4 identifies human distal lung epithelial progenitor cells with potential as a cell-based therapy for cystic fibrosis lung disease.” PLoS One 8(12): e83624). Therefore, the inventors set out to examine by immunofluorescence the presence of these cells in mouse lungs at 3 and 6 weeks after bleomycin treatment. […] In addition, the inventors isolated mouse α6β4 cells and treated them for 2 weeks with PKC-ζi ([…]).
(§2) Animal protocols were approved by the Institutional Animal Care and Use Committee at the University of Iowa. C57BL/6 mice (Jackson Laboratories, Bar Harbor, Me.) were anesthetized followed by intratracheal instillation of: (A) Control (Ctrl): 1 μl of DMSO (Sigma, St. Louis, Mo.) plus 49 μl of PBS; (B) Bleomycin (Bleo): 1 μl of DMSO plus 49 μl of bleomycin (APP pharmaceuticals, LLC Schaumburg, Ill.) dissolved in PBS (4 U/kg); (C) Bleomycin/PKCζi (Bleo/PKCζi): 1 μg of PKCζi (Calbiochem EMD Biosciences, San Diego, Calif.) solubilized in 1 μl of DMSO plus 49 μl of bleomycin (4 U/Kg) dissolved in PBS (Calbiochem EMD Biosciences, San Diego, Calif.). After this treatment, all mice were instilled (50 μl) every 72 hours with 1 μl of DMSO plus 49 μl of PBS in the Ctrl and Bleo group or with 1 μg of PKCζi dissolved in 1 μl of DMSO plus 49 μl of PBS in the Bleo/PKCζi group for the duration of the experiment. Mice were treated for up to 6 weeks (FIG. 1A). All conditions had between 4 to 6 animals.
After dissection, immunofluorescence labeling was performed on frozen mouse lung tissue sections with polyclonal anti p-PKCζ (Santa Cruz Biotechnology, Dallas, Tex.) or monoclonal β4 antibody (Clone 346-11a, BD Biosciences, San Jose, Calif.) (23). In addition, Terminal deoxynucleotidyltransferase dUTP nick end labeling (TUNEL) staining was performed on week 1 mouse lung tissue sections (24).

Assay [1] has as its system bleomycin induced ALI mouse model. Put plainly: In vivo lung μCT scan in bleomycin ALI model. As to conditions: week 6. On the procedure: as §2
High resolution scanning coupled to a computer controlled respirator to reduce ventilation motion artifacts was performed as described previously (27).

The subject of another assay is integrin β4^+ DLEP cells. The experiment in a line: Isolated integrin β4+ DLEP cell colony proliferation in matrigel. As to conditions: for number of β4+ colonies: PKCζi 520 nM, two weeks, media with 20% BALF from bleomycin injured mice, vs PBS and DMSO. In kind it is cell-based, mouse.
From the text: as §1
Integrin β4^+ cells were isolated using flow cytometry and were seeded in matrigel as previously described with modifications (23). Cells were grown for two weeks in the presence of PBS, DMSO (1:1000) or PKCζi (1:1000, 520 nM final concentration PKC). In order to recreate the microenvironment, the media was supplemented with 20% BALF from bleomycin treated mice from week 1 similar to previously described (4).
To test the hypothesis that PKCζ can promote proliferation of β4^+ DLEP cells, integrin β4^+ cells were isolated and the media was supplemented with BALF from bleomycin treated mice from week 1 in the presence of PBS, DMSO or […], in order to recreate the microenvironment in a similar approach as Vaughan and colleagues (4). […] As shown in FIGS. 5 C & D, PKCζi increased proliferation of DLEP integrin β4^+ cells in vitro compared to control.

The subject of assay [2] is bleomycin induced ALI mouse model. The experiment in a line: BALF total protein concentration (alveolar-capillary permeability), Bradford assay. As to conditions: week 1 post injury. It is filed as in vivo. The procedure:
as §2
Bronchoalveolar lavage was performed as previously described (18). Total cell count was examined by hemocytometer and the percent of neutrophils cells in the bronchoalveolar lavage fluid (BALF) by cytospin slides stained with Wright's-Giemsa. Total protein concentration was measured by Bradford assay (Bio-Rad, Hercules, Calif.).

“Also recorded” adds a separate entry of the source. *: point of attachment. Myristoyl = CCCCCCCCCCCCCC(=O)*

In the case of “N-Myristoyl-Ser-Ile-Tyr-Arg-Arg-Gly-Ala-Arg-Arg-Trp-Arg-Lys-Leu-OH (Myristoyl-SIYRRGARRWRKL-OH; SMILES CCCCCCCCCCCCCC(=O)N[C@@H](CO)C(=O)N[C@H](C(=O)N[C@@H](Cc1ccc(O)cc1)C(=O)N[C@@H](CCCNC(=N)N)C(=O)N[C@@H](CCCNC(=N)N)C(=O)NCC(=O)N[C@@H](C)C(=O)N[C@@H](CCCNC(=N)N)C(=O)N[C@@H](CCCNC(=N)N)C(=O)N[C@@H](Cc1c[nH]c2ccccc12)C(=O)N[C@@H](CCCNC(=N)N)C(=O)N[C@@H](CCCCN)C(=O)N[C@@H](CC(C)C)C(=O)O)[C@@H](C)CC) [PKCζi]”, the “number of lung DLEP integrin β4+ (α6β4) cells” value was “an increase in DLEP integrin β4^+ cells in the PKCζi treated mice at week 3” in the assay on DLEP integrin β4^+ cells (week 3 after bleomycin); “an increase trend in α6β44 in the PKC-ζi treated mice” in the assay with DLEP integrin β4^+ cells (week 3 after bleomycin, listed as PKC-ζi); “became statistically significant at week 6; also recorded: increased number of lung DLEP integrin β4^+ cells compared to bleomycin group at week 6” in the assay on DLEP integrin β4^+ cells (week 6 after bleomycin); “became significant at 6 weeks” in the assay on DLEP integrin β4^+ cells (week 6 after bleomycin, listed as PKC-ζi). For the same substance, the “lung injury on μCT” value is listed as “confirmed lung injury resolution; also recorded: complete resolution in the PKCζi group at week 6” in assay [1] and “confirmed lung injury resolution” in assay [1] (listed as PKC-ζi). For the same substance, in the assay with integrin β4^+ DLEP cells (Example 1, treated for 2 weeks, concentration not given, vs DMSO), the “number of isolated mouse α6β4 cells” value is listed as “increased the number of α6β4 cells compared to DMSO treated cells”. For the same substance, the “number of β4+ colonies” value with integrin β4^+ DLEP cells was “increased number of large colonies compared to either DMSO or the PBS group”; with integrin β4^+ DLEP cells (listed as PKC-ζi), “increased the number of β4^+ colonies compared to PBS and DMSO at week 2”. Further, the BALF protein concentration entry in assay [2] was “prevented the increase in mice BALF protein concentration compared to bleomycin group; also recorded: prevents increase in BALF protein concentration in bleomycin treated mice”; in assay [2] (listed as PKC-ζ inhibitor) it was “prevents increased protein content in BAL in bleomycin induced ALI”.
